Assays:
[1] = Log P of the peptides; type: physicochemical
[2] = Visual inspection of physical appearance of the compositions; type: physicochemical; details: peptide 0.125 wt. % at the optimal ingredient concentrations, in words
Method: The stability of the formulations was determined by visual inspection and by quantification of the amount of active ingredient by high performance liquid chromatography (HPLC).
Visual inspection: The results are classified as OK or KO according to the physical appearance. OK represents a transparent solution at t=0 h with small particles at the bottom after 24h. KO represents solutions completely separated into phases, turbid or with an unacceptable precipitate at the bottom.

Molecule	logP [1]	compatibility of the peptide with the composition [2]
CC(C)C[C@H](NC(=O)[C@H](Cc1ccccc1)NC(=O)CNC(=O)[C@@H](C)NC(=O)[C@@H](N)Cc1ccc(O)cc1)C(=O)O [PEP-9, H-Tyr-D-Ala-Gly-Phe-Leu-OH]	-1.02	good compatibility
Ac-EEMQRRAD-NH2 [PEP-2, Ac-Glu-Glu-Met-Gln-Arg-Arg-Ala-Asp-NH2]	-5.84	good compatibility
H-FWMKRKRVP-NH2 [PEP-8, H-Phe-Trp-Met-Lys-Arg-Lys-Arg-Val-Pro-NH2]	-3.38	good compatibility
